Measured values from patent publication US8871934B2, “Fluorene compound and pharmaceutical use thereof” (Japan Tobacco Inc., priority 2008, dated 2014).

The molecules below were run against human PDHK2 (hPDHK2) (Homo sapiens (Human), UniProt Q15119) (assay: Inhibitory action of PDHK activity in vitro (kinase reaction, residual PDH activity measured)). Settings: PDHK inhibitory activity, class symbol of IC50.
Type: biochemical

SMILES | IC50
Cc1ccc(-c2cccc3c2-c2ccccc2C3(O)C(F)(F)F)cn1 (stereo not shown) [compound 273] | 0.1 to 1 µM
Cc1nc(-c2cccc3c2-c2ccccc2C3(O)C(F)(F)F)no1 (stereo not shown) [compound 274] | > 1 µM
Cc1ncc(-c2cccc3c2-c2ccccc2C3(O)C(F)(F)F)o1 (stereo not shown) [compound 275] | 0.1 to 1 µM
CC(C)CCOc1ccc2c(c1)C(O)(C(F)(F)F)c1ccccc1-2 (stereo not shown) [compound 276] | > 1 µM
OC1(C(F)(F)F)c2ccccc2-c2c(-c3cn[nH]c3)cccc21 (stereo not shown) [compound 277] | 0.1 to 1 µM
CCCCCOc1ccc2c(c1)C(O)(C(F)(F)F)c1ccccc1-2 (stereo not shown) [compound 278] | 0.1 to 1 µM
CC(C)(C)COc1ccc2c(c1)C(O)(C(F)(F)F)c1ccccc1-2 (stereo not shown) [compound 279] | > 1 µM
NC(=O)CCCOc1ccc2c(c1)C(O)(C(F)(F)F)c1ccccc1-2 (stereo not shown) [compound 280] | > 1 µM
CNC(=O)CCCOc1ccc2c(c1)C(O)(C(F)(F)F)c1ccccc1-2 (stereo not shown) [compound 281] | > 1 µM
CN(C)C(=O)CCCOc1ccc2c(c1)C(O)(C(F)(F)F)c1ccccc1-2 (stereo not shown) [compound 282] | 0.1 to 1 µM
CCOC(=O)CCCCOc1ccc2c(c1)C(O)(C(F)(F)F)c1ccccc1-2 (stereo not shown) [compound 283] | 0.1 to 1 µM
OCCCOc1ccc2c(c1)C(O)(C(F)(F)F)c1ccccc1-2 (stereo not shown) [compound 284] | > 1 µM
CC(C)(C)C(=O)N1CCN(c2cc(-c3cccnc3)c3c(c2)C(O)(C(F)(F)F)c2ccccc2-3)CC1 (stereo not shown) [compound 285] | < 0.1 µM
Cn1cc(-c2cc(Cl)cc3c2-c2ccccc2C3(O)C(F)(F)F)cn1 (stereo not shown) [compound 286] | < 0.1 µM
O=C(O)COc1ccc2c(c1)C(O)(C(F)(F)F)c1ccccc1-2 (stereo not shown) [compound 287] | > 1 µM
NC(=O)COc1ccc2c(c1)C(O)(C(F)(F)F)c1ccccc1-2 (stereo not shown) [compound 288] | 0.1 to 1 µM
CNC(=O)COc1ccc2c(c1)C(O)(C(F)(F)F)c1ccccc1-2 (stereo not shown) [compound 289] | 0.1 to 1 µM
CN(C)C(=O)COc1ccc2c(c1)C(O)(C(F)(F)F)c1ccccc1-2 (stereo not shown) [compound 290] | 0.1 to 1 µM

SMILES | IC50
O=C(O)CCOc1ccc2c(c1)C(O)(C(F)(F)F)c1ccccc1-2 (stereo not shown) [compound 291] | > 1 µM
OCCOc1ccc2c(c1)C(O)(C(F)(F)F)c1ccccc1-2 (stereo not shown) [compound 292] | > 1 µM
CC1CCCN1c1ccc2c(c1)C(O)(C(F)(F)F)c1ccccc1-2 (stereo not shown) [compound 293] | > 1 µM
CCCCCCOc1ccc2c(c1)C(O)(C(F)(F)F)c1ccccc1-2 (stereo not shown) [compound 294] | 0.1 to 1 µM
O=C(O)CCCCOc1ccc2c(c1)C(O)(C(F)(F)F)c1ccccc1-2 (stereo not shown) [compound 295] | 0.1 to 1 µM
OCCCCCOc1ccc2c(c1)C(O)(C(F)(F)F)c1ccccc1-2 (stereo not shown) [compound 296] | 0.1 to 1 µM
CN(CCO)C(=O)c1ccc2c(c1)C(O)(C(F)(F)F)c1ccccc1-2 (stereo not shown) [compound 297] | > 1 µM
OCCCCCCOc1ccc2c(c1)C(O)(C(F)(F)F)c1ccccc1-2 (stereo not shown) [compound 298] | 0.1 to 1 µM
CN(C)C(=O)CCCCOc1ccc2c(c1)C(O)(C(F)(F)F)c1ccccc1-2 (stereo not shown) [compound 299] | 0.1 to 1 µM
OC1(C(F)(F)F)c2ccccc2-c2c(-c3cncnc3)cccc21 (stereo not shown) [compound 300] | 0.1 to 1 µM
NC(=O)CCOc1ccc2c(c1)C(O)(C(F)(F)F)c1ccccc1-2 (stereo not shown) [compound 301] | > 1 µM
CNC(=O)CCOc1ccc2c(c1)C(O)(C(F)(F)F)c1ccccc1-2 (stereo not shown) [compound 302] | > 1 µM
CN(C)C(=O)CCOc1ccc2c(c1)C(O)(C(F)(F)F)c1ccccc1-2 (stereo not shown) [compound 303] | 0.1 to 1 µM
COC(=O)C1CCN1C(=O)c1ccc2c(c1)C(O)(C(F)(F)F)c1ccccc1-2 (stereo not shown) [compound 304] | 0.1 to 1 µM
CNC(=O)CCCCOc1ccc2c(c1)C(O)(C(F)(F)F)c1ccccc1-2 (stereo not shown) [compound 305] | 0.1 to 1 µM
NC(=O)CCCCOc1ccc2c(c1)C(O)(C(F)(F)F)c1ccccc1-2 (stereo not shown) [compound 306] | 0.1 to 1 µM
CCCN(C)C(=O)c1ccc2c(c1)C(O)(C(F)(F)F)c1ccccc1-2 (stereo not shown) [compound 307] | > 1 µM

Same assay, conditions: read-out: PDHK inhibitory activity IC50

SMILES | IC50
Cc1ccc(-c2cccc3c2-c2ccccc2C3(O)C(F)(F)F)cn1 (stereo not shown) [compound 273] | 0.396 µM
Cc1nc(-c2cccc3c2-c2ccccc2C3(O)C(F)(F)F)no1 (stereo not shown) [compound 274] | 7.49 µM
Cc1ncc(-c2cccc3c2-c2ccccc2C3(O)C(F)(F)F)o1 (stereo not shown) [compound 275] | 0.278 µM
CC(C)CCOc1ccc2c(c1)C(O)(C(F)(F)F)c1ccccc1-2 (stereo not shown) [compound 276] | 1.01 µM
OC1(C(F)(F)F)c2ccccc2-c2c(-c3cn[nH]c3)cccc21 (stereo not shown) [compound 277] | 0.125 µM
CCCCCOc1ccc2c(c1)C(O)(C(F)(F)F)c1ccccc1-2 (stereo not shown) [compound 278] | 0.862 µM
CC(C)(C)COc1ccc2c(c1)C(O)(C(F)(F)F)c1ccccc1-2 (stereo not shown) [compound 279] | 1.85 µM
NC(=O)CCCOc1ccc2c(c1)C(O)(C(F)(F)F)c1ccccc1-2 (stereo not shown) [compound 280] | 1.51 µM
CNC(=O)CCCOc1ccc2c(c1)C(O)(C(F)(F)F)c1ccccc1-2 (stereo not shown) [compound 281] | 1 µM
CN(C)C(=O)CCCOc1ccc2c(c1)C(O)(C(F)(F)F)c1ccccc1-2 (stereo not shown) [compound 282] | 0.226 µM
CCOC(=O)CCCCOc1ccc2c(c1)C(O)(C(F)(F)F)c1ccccc1-2 (stereo not shown) [compound 283] | 0.571 µM
OCCCOc1ccc2c(c1)C(O)(C(F)(F)F)c1ccccc1-2 (stereo not shown) [compound 284] | 1.17 µM
CC(C)(C)C(=O)N1CCN(c2cc(-c3cccnc3)c3c(c2)C(O)(C(F)(F)F)c2ccccc2-3)CC1 (stereo not shown) [compound 285] | 0.02 µM
Cn1cc(-c2cc(Cl)cc3c2-c2ccccc2C3(O)C(F)(F)F)cn1 (stereo not shown) [compound 286] | 0.017 µM
O=C(O)COc1ccc2c(c1)C(O)(C(F)(F)F)c1ccccc1-2 (stereo not shown) [compound 287] | > 10 µM
NC(=O)COc1ccc2c(c1)C(O)(C(F)(F)F)c1ccccc1-2 (stereo not shown) [compound 288] | 0.635 µM
CNC(=O)COc1ccc2c(c1)C(O)(C(F)(F)F)c1ccccc1-2 (stereo not shown) [compound 289] | 0.641 µM
CN(C)C(=O)COc1ccc2c(c1)C(O)(C(F)(F)F)c1ccccc1-2 (stereo not shown) [compound 290] | 0.793 µM

SMILES | IC50
O=C(O)CCOc1ccc2c(c1)C(O)(C(F)(F)F)c1ccccc1-2 (stereo not shown) [compound 291] | 5.83 µM
OCCOc1ccc2c(c1)C(O)(C(F)(F)F)c1ccccc1-2 (stereo not shown) [compound 292] | 2.57 µM
CC1CCCN1c1ccc2c(c1)C(O)(C(F)(F)F)c1ccccc1-2 (stereo not shown) [compound 293] | 4.95 µM
CCCCCCOc1ccc2c(c1)C(O)(C(F)(F)F)c1ccccc1-2 (stereo not shown) [compound 294] | 0.71 µM
O=C(O)CCCCOc1ccc2c(c1)C(O)(C(F)(F)F)c1ccccc1-2 (stereo not shown) [compound 295] | 0.861 µM
OCCCCCOc1ccc2c(c1)C(O)(C(F)(F)F)c1ccccc1-2 (stereo not shown) [compound 296] | 0.18 µM
CN(CCO)C(=O)c1ccc2c(c1)C(O)(C(F)(F)F)c1ccccc1-2 (stereo not shown) [compound 297] | 3.03 µM
OCCCCCCOc1ccc2c(c1)C(O)(C(F)(F)F)c1ccccc1-2 (stereo not shown) [compound 298] | 0.177 µM
CN(C)C(=O)CCCCOc1ccc2c(c1)C(O)(C(F)(F)F)c1ccccc1-2 (stereo not shown) [compound 299] | 0.235 µM
OC1(C(F)(F)F)c2ccccc2-c2c(-c3cncnc3)cccc21 (stereo not shown) [compound 300] | 0.114 µM
NC(=O)CCOc1ccc2c(c1)C(O)(C(F)(F)F)c1ccccc1-2 (stereo not shown) [compound 301] | 1.59 µM
CNC(=O)CCOc1ccc2c(c1)C(O)(C(F)(F)F)c1ccccc1-2 (stereo not shown) [compound 302] | 1.17 µM
CN(C)C(=O)CCOc1ccc2c(c1)C(O)(C(F)(F)F)c1ccccc1-2 (stereo not shown) [compound 303] | 0.755 µM
COC(=O)C1CCN1C(=O)c1ccc2c(c1)C(O)(C(F)(F)F)c1ccccc1-2 (stereo not shown) [compound 304] | 0.723 µM
CNC(=O)CCCCOc1ccc2c(c1)C(O)(C(F)(F)F)c1ccccc1-2 (stereo not shown) [compound 305] | 0.562 µM
NC(=O)CCCCOc1ccc2c(c1)C(O)(C(F)(F)F)c1ccccc1-2 (stereo not shown) [compound 306] | 0.453 µM
CCCN(C)C(=O)c1ccc2c(c1)C(O)(C(F)(F)F)c1ccccc1-2 (stereo not shown) [compound 307] | 3.2 µM
